Data on two compounds can be found in patent publication EP4538262A1, “COCRYSTALS OF VORASIDENIB” (SANDOZ AG, priority 2023, dated 2025).

Series [1] is described as follows: Moisture sorption isotherm (DVS). Type of series: physicochemical. As to conditions: between 10 to 90 % RH, RH step of 5% RH. As to the method:
The moisture sorption isotherms were recorded with a SPS-11 moisture sorption analyzer (MD Messtechnik, Ulm, Germany). […] The equilibrium condition for each step was set to a mass constancy of ±0.002 % over 40 min.

For series [2] the following is noted: in phosphate buffer pH 6.8 + 0.003% Tween 80, 10% methanol, 25 °C.

For `C[C@@H](Nc1nc(N[C@H](C)C(F)(F)F)nc(-c2cccc(Cl)n2)n1)C(F)(F)F.C[C@@H](Nc1nc(N[C@H](C)C(F)(F)F)nc(-c2cccc(Cl)n2)n1)C(F)(F)F.O.O=C(O)/C=C/C(=O)O` [vorasidenib fumaric acid cocrystal], the DVS water content entry in series [1] was “not more than 2.0 % by weight”.
Turning to `CC(Nc1nc(NC(C)C(F)(F)F)nc(-c2cccc(Cl)n2)n1)C(F)(F)F.O=C(O)CC(=O)O` (centres unmarked) [Vorasidenib malonic acid cocrystal], in series [2], the “time of transformation to vorasidenib dihydrate” value is “ten”.
